Reference: patent US11371055B2, “Herbicide resistance genes” (CORTEVA AGRISCIENCE LLC, priority 2005, dated 2022)

Tests used:
[1] = tested on: Roundup Ready (RR) control corn hybrid (2P782); assay: Field tolerance of corn: visual injury and brace root injury, control hybrid; format: in vivo, Zea mays
Experimental: Seeds were planted with cone planter on 40-inch row spacing at Wayside and 30 inch spacing at Fowler. […] Herbicide treatments were 2,4-D (dimethylamine salt) at 1120, 2240 and 4480 g ae/ha, triclopyr at 840 g ae/ha, fluroxypyr at 280 g ae/ha and an untreated control. The AAD-12 (v1) events contained the AHAS gene as a selectable marker. The F2 corn events were segregating so the AAD-12 (v1) plants were treated with imazethapyr at 70 g ae/ha to remove the null plants. Herbicide treatments were applied when corn reached the V6 stage using compressed air backpack sprayer delivering 187 L/ha carrier volume at 130-200 kpa pressure. Visual injury ratings were taken at 7, 14 and 21 days after treatment.

wildtype KY160 tobacco = assay: Cross tolerance test, wildtype tobacco; format: in vivo, Nicotiana tabacum
Description: Two to four T0 individuals surviving high rates of 2,4-D and fluroxypyr were saved from each event and allowed to self fertilize in the greenhouse to give rise to T1 seed. The T1 seed was stratified, and sown into selection trays much like that of Arabidopsis (Example 7.4), followed by selective removal of untransformed nulls in this segregating population with 560 g ai/ha glufosinate (PAT gene selection). Survivors were transferred to individual 3-inch pots in the greenhouse. These lines provided high levels of resistance to 2,4-D in the T0 generation. Improved consistency of response is anticipated in T1 plants not having come directly from tissue culture. These plants were compared against wildtype KY160 tobacco. All plants were sprayed with a track sprayer set at 187 L/ha. The plants were sprayed from a range of 140-2240 g ac/ha 2,4-D dimethylamine salt (DMA), 70-1120 g ace/ha triclopyr or 35-560 g ae/ha fluroxypyr. All applications were formulated in water. Each treatment was replicated 2-4 times. Plants were evaluated at 3 and 14 days after treatment. Plants were assigned injury rating with respect to stunting, chlorosis, and necrosis. The T1 generation is segregating, so some variable response is expected due to difference in zygosity.

[2] = tested on: AAD-12 (v1) tobacco lines (pDAS1580-[1]-018.001, pDAS1580-[1]-004.001, pDAS1580-[1]-020.016); assay: Field tolerance of tobacco, AAD-12 lines; format: in vivo, Nicotiana tabacum
Experimental: Field level tolerance trials were conducted on three AAD-12 (v1) lines (events pDAS1580-[1]-018.001, pDAS1580-[1]-004.001 and pDAS1580-[1]-020.016) and one wild-type line (KY160) at field stations in Indiana and Mississippi. Tobacco transplants were grown in the greenhouse by planting T1 seed in 72 well transplant flats (Hummert International) containing Metro 360 media according to growing conditions indicated above. The null plants were selectively removed by Liberty selection as previously described. The transplant plants were transported to the field stations and planted at either 14 or 24 inches apart using industrial vegetable planters. Drip irrigation at the Mississippi site and overhead irrigation at the Indiana site were used to keep plants growing vigorously.
The experimental design was a split plot design with 4 replications. The main plot was herbicide treatment and the sub-plot was tobacco line. The herbicide treatments were 2,4-D (dimethylamine salt) at 280, 560, 1120, 2240 and 4480 g ac/ha, triclopyr at 840 g ae/ha, fluroxypyr at 280 g ac/ha and an untreated control. Plots were one row by 25-30 ft. Herbicide treatments were applied 3-4 weeks after transplanting using compressed air backpack sprayer delivering 187 L/ha carrier volume at 130-200 kpa pressure. Visual rating of injury, growth inhibition, and epinasty were taken at 7, 14 and 21 days after treatment.

[3] = tested on: AAD-1 (v3) (pDAB721) T2 tobacco plants; assay: Auxinic herbicide cross tolerance of stacked tobacco, AAD-1 T2; format: in vivo, Nicotiana tabacum
Experimental: (§1) Homozygous AAD-12 (v1) (pDAS1580) and AAD-1 (v3) (pDAB721) plants (see PCT/US2005/014737 for the latter) were both reciprocally crossed and F1 seed was collected. The F1 seed from two reciprocal crosses of each gene were stratified and treated 4 reps of each cross were treated under the same spray regimen as used for the other testing with one of the following treatments: 70, 140, 280 g ac/ha fluroxypyr (selective for the AAD-12 (v1) gene); 280, 560, 1120 g ae/ha R-dichloroprop (selective for the AAD-1 (v3) gene); or 560, 1120, 2240 g ae/ha 2,4-D DMA (to confirm 2,4-D tolerance). Homozygous T2 plants of each gene were also planted for use as controls. Plants were graded at 3 and 14 DAT.

wildtype tobacco = assay: Auxinic herbicide cross tolerance of stacked tobacco, wildtype; format: in vivo, Nicotiana tabacum; conditions: KY160 wildtype control
Experimental: as §1

[4] = tested on: wild-type canola (Nex710); assay: Field tolerance of canola, wild-type; format: in vivo, Brassica napus
Experimental: Field level tolerance trial was conducted on two AAD-12 (v1) events 3759(20)018.001 and 3759(18)030.001 and a wild-type canola (Nex710) in Fowler, Ind. The experimental design was a randomized complete block design with 3 replications. Herbicide treatments were 2,4-D (dimethylamine salt) at 280, 560, 1120, 2240 and 4480 g ac/ha, triclopyr at 840 g ae/ha, fluroxypyr at 280 g ae/ha and an untreated control. Within each herbicide treatment, single 20 ft row/event for event 3759(18)030.0011, 3759(18)018.001 and wild-type line (Nex710) were planted with a 4 row drill on 8 inch row spacing. Herbicide treatments were applied when canola reached the 4-6 leaf stage using compressed air backpack sprayer delivering 187 L/ha carrier volume at 130-200 kpa pressure. Visual injury ratings were taken at 7, 14 and 21 days after application.

[5] = Fluroxypyr at 280 g ae/ha, 14 DAT

SMILES: Nc1c(Cl)c(F)nc(OCC(=O)O)c1Cl [Fluroxypyr]
- % Visual Injury 14DAT ([1]; 2P782 control, 280 g ae/ha): 11%
- brace root injury ([1]; Fluroxypyr at 280 g ae/ha): moderate brace root swelling and wandering
- visual injury [1, 5]: 11%
- Brace Root Injury Rating (0-10 scale) 28DAT ([1]; Wild-type NK603, 280 g ae/ha): 2
- Average % Injury of Replicates 14 DAT (wildtype KY160 tobacco; 35 g ae/ha): 85%
- Average % Injury of Replicates 14 DAT (wildtype KY160 tobacco; 140 g ae/ha): 93%
- Average % Injury of Replicates 14 DAT (wildtype KY160 tobacco; 560 g ae/ha): 100%
- average injury [2, 5]: 11%
- Average % Injury across locations at 14 DAT ([2]; pDAS1580-[1]-004.001, 280 GM AE/HA): 11%
- Average % Injury across locations at 14 DAT ([2]; pDAS1580-[1]-018.001, 280 GM AE/HA): 12%
- Average % Injury across locations at 14 DAT ([2]; pDAS1580-[1]-020.016, 280 GM AE/HA): 11%
- Average % injury 14 DAT ([3]; 70 g ae/ha): 40%
- Average % injury 14 DAT ([3]; 140 g ae/ha): 60%
- Average % injury 14 DAT (wildtype tobacco; 70 g ae/ha): 40%
- Average % injury 14 DAT (wildtype tobacco; 140 g ae/ha): 65%
- visual injury ([4]; Fluroxypyr at 280 g ae/ha, 14DAA): 37%
- % Visual Injury at 14 DAT ([4]; Wild Type (Nex710), 280 GM AE/HA): 37 ab %
